# Values quoted from earlier work in patent US20240423961A1, “1H-1,2,3-TRIAZOLE-4-CARBOXYLIC ACIDS FOR TREATMENT OF HYPEROXALURIA AND KIDNEY STONES” (CANTERO THERAPEUTICS, INC., priority 2021, published 2024).
# Several values for one entry are separate records, joined by “and”; a condition that tells them apart may be missing. Equal entries are not always repeated. Where two headings read alike, the source gives them in different places.
# Tested on: glycolate oxidase (GO)
# Conditions: cited from earlier work
substance,measurement,setting,value
lumasiran,measured peak plasma glycolate relative to baseline levels,single subcutaneous dose 0.3 mg/kg,~1.6 fold
same,measured peak plasma glycolate relative to baseline levels,single subcutaneous dose 1.0 mg/kg,~2.5 fold
same,measured peak plasma glycolate relative to baseline levels,"single subcutaneous dose 3.0 mg/kg, 3 mg/kg",~3.1 fold and ~3 fold
same,measured peak plasma glycolate relative to baseline levels,single subcutaneous dose 6.0 mg/kg,~7.3 fold
